# Measurements: patent US10669242B2 (priority 2016, dated 2020)
# pIC50: −log10 of the molar value.
# Molecular target: T1, recombinant glucosyltransferase domain of C. difficile Toxin B/TcdB (Clostridioides difficile, UniProt P18177)
# T1 construct: 6-His (C); purchased R&D Systems 6246-GT
# Assay: biochemical
# T1 sequence (P18177 1-543): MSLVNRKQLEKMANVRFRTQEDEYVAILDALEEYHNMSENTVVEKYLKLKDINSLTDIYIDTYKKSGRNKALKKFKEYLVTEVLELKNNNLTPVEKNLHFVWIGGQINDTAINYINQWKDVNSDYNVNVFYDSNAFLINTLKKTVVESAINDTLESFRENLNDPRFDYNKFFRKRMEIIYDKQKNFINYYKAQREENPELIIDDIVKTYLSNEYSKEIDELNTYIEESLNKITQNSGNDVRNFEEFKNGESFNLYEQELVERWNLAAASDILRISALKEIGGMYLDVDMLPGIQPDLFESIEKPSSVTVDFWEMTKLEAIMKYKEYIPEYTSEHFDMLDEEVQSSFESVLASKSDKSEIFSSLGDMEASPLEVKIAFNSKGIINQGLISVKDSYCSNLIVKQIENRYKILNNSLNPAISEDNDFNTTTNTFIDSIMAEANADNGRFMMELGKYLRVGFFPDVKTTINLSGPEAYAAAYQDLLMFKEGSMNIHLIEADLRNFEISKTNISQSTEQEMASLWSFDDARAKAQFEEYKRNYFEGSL
row,SMILES,pIC50
1,"O=C(NO)c1ccc(CN2C(=O)c3ccc(Cl)cc3NC(=O)[C@H]2Cc2ccccn2)cc1 [Example 40a, (R)-4-((8-Chloro-2,5-dioxo-3-(pyridin-2-ylmethyl)-2,3-dihydro-1H-benzo[e][1,4]diazepin-4(5H)-yl)methyl)-N-hydroxybenzamide]",> 7.00
2,O=C(Nc1ccc(CN2C(=O)c3ccc(Cl)cc3NC(=O)[C@H]2Cc2ccccn2)cc1)c1ncc[nH]1 [Example 27h],> 7.00
3,"O=C(Nc1ccc(CN2C(=O)c3ccc(Cl)cc3NC(=O)[C@H]2Cc2cccnc2)cc1)c1ccccn1 [Example 26a, (R)—N-(4-((8-Chloro-2,5-dioxo-3-(pyridin-3-ylmethyl)-2,3-dihydro-1H-benzo[e][1,4]diazepin-4(5H)-yl)methyl)phenyl)picolinamide]",6.00 to 7.00
4,O=C(O)c1ccc(CN2C(=O)c3ccc(Cl)cc3NC(=O)[C@H]2Cc2cscn2)cc1 [Example 1m],5.00 to 6.00
5,"O=C(Nc1ccccn1)c1ccc(CN2C(=O)c3ccc(Cl)cc3NC(=O)[C@H]2CCc2ccccc2)cc1 [Example 4g, (R)-4-((8-chloro-2,5-dioxo-3-phenethyl-2,3-dihydro-1H-benzo[e][1,4]diazepin-4(5H)-yl)methyl)-N-(pyridin-2-yl)benzamide]",5.00 to 6.00
6,"Cc1cnc2c(c1)CCN2C(=O)c1ccc(CN2C(=O)c3ccc(Cl)cc3NC(=O)[C@H]2Cc2ccccn2)cc1 [Example 4af, (R)-8-chloro-4-(4-(5-methyl-2,3-dihydro-1H-pyrrolo[2,3-b]pyridine-1-carbonyl)benzyl)-3-(pyridin-2-ylmethyl)-3,4-dihydro-1H-benzo[e][1,4]diazepine-2,5-dione]",> 7.00
7,O=C(O)c1ccc(CN2C(=O)c3ccc(Cl)cc3NC(=O)[C@H]2Cc2ccccn2)cc1NC(=O)C1CCOCC1 [Example 22m],6.00 to 7.00
8,"COc1cnc(NC(=O)c2ccc(CN3C(=O)c4ccc(Cl)cc4NC(=O)[C@H]3Cc3cccnc3)cc2)nc1 [Example 5m, (R)-4-((8-chloro-2,5-dioxo-3-(pyridin-3-ylmethyl)-2,3-dihydro-1H-benzo[e][1,4]diazepin-4(5H)-yl)methyl)-N-(5-methoxypyrimidin-2-yl)benzamide]",> 7.00
9,"CS(=O)(=O)Nc1ccc(CN2C(=O)c3ccc(Cl)cc3NC(=O)[C@H]2Cc2ccccn2)cc1 [Example 30a, (R)—N-(4-((8-Chloro-2,5-dioxo-3-(pyridin-2-ylmethyl)-2,3-dihydro-1H-benzo[e][1,4]diazepin-4(5H)-yl)methyl)phenyl)methanesulfonamide]",4.46 to 5.00
10,"Cc1cnc(NC(=O)c2ccc(CN3C(=O)c4ccc(Cl)cc4NC(=O)[C@H]3Cc3cnccn3)cc2)nc1 [Example 5z, 4-((8-chloro-2,5-dioxo-3-(pyrazin-2-ylmethyl)-2,3-dihydro-1H-benzo[e][1,4]diazepin-4(5H)-yl)methyl)-N-(5-methylpyrimidin-2-yl)benzamide]",> 7.00
11,Cc1cccc(C(=O)Nc2ccc(CN3C(=O)c4ccc(Cl)cc4NC(=O)[C@H]3Cc3ccccn3)cc2)n1 [Example 26d],5.00 to 6.00
12,O=C1Nc2cc(Cl)ccc2C(=O)N(C[C@H]2CC[C@H](C(=O)Nc3ccccn3)CC2)[C@@H]1Cc1cccnc1 [Example 35l],6.00 to 7.00
13,"Cn1nccc1-c1cc(CN2C(=O)c3ccc(Cl)cc3NC(=O)[C@H]2Cc2ccccn2)ccc1C(=O)O [Example 8s, (R)-4-((8-chloro-2,5-dioxo-3-(pyridin-2-ylmethyl)-2,3-dihydro-1H-benzo[e][1,4]diazepin-4(5H)-yl)methyl)-2-(1-methyl-1H-pyrazol-5-yl)benzoic acid]",5.00 to 6.00
14,COc1ccc2c(c1)NC(=O)[C@@H](Cc1ccc(Cl)c(Cl)c1)N(Cc1ccc(C(=O)O)cc1)C2=O [Example 2f],5.00 to 6.00
15,"O=C(Nc1ccccn1)c1ccc(CN2C(=O)c3ccc(Cl)cc3NC(=O)[C@H]2Cc2ccc(Cl)cc2)cc1 [Example 4j, (R)-4-((8-chloro-3-(4-chlorobenzyl)-2,5-dioxo-2,3-dihydro-1H-benzo[e][1,4]diazepin-4(5H)-yl)methyl)-N-(pyridin-2-yl)benzamide]",5.00 to 6.00
16,COCC(=O)Nc1cccc(CN2C(=O)c3ccc(Cl)cc3NC(=O)[C@H]2Cc2ccccn2)c1 [Example 28b],5.00 to 6.00
17,"C[C@@H]1C(=O)Nc2cc(Cl)ccc2C(=O)N1Cc1ccc(C(=O)N2CCc3cccnc32)cc1 [Example 4y, (R)-8-chloro-4-(4-(2,3-dihydro-1H-pyrrolo[2,3-b]pyridine-1-carbonyl)benzyl)-3-methyl-3,4-dihydro-1H-benzo[e][1,4]diazepine-2,5-dione]",> 7.00
18,O=C1Nc2cc(Cl)ccc2C(=O)N(Cc2ccc3c(c2)CN(c2ccccn2)C3=O)[C@@H]1Cc1ccccn1 [Example 49d],6.00 to 7.00
19,"COc1cnc(NC(=O)c2ccc(CN3C(=O)c4ccc(Cl)cc4NC(=O)[C@H]3Cc3ccccn3)cc2)cn1 [Example 5v, (R)-4-((8-chloro-2,5-dioxo-3-(pyridin-2-ylmethyl)-2,3-dihydro-1H-benzo[e][1,4]diazepin-4(5H)-yl)methyl)-N-(5-methoxypyrazin-2-yl)benzamide]",> 7.00

row,SMILES,pIC50
1,"O=C(O)c1ccc(CN2C(=O)c3ccc(Cl)cc3NC(=O)[C@H]2Cc2ccccn2)cc1-c1cn[nH]c1 [Example 8r, (R)-4-((8-chloro-2,5-dioxo-3-(pyridin-2-ylmethyl)-2,3-dihydro-1H-benzo[e][1,4]diazepin-4(5H)-yl)methyl)-2-(1H-pyrazol-4-yl)benzoic acid]",6.00 to 7.00
2,"O=C(O)c1ccc(CN2C(=O)c3ccc(Cl)cc3NC(=O)[C@H]2Cc2ccccn2)cc1-c1cccc(F)c1 [Example 8k, (R)-5-((8-chloro-2,5-dioxo-3-(pyridin-2-ylmethyl)-2,3-dihydro-1H-benzo[e][1,4]diazepin-4(5H)-yl)methyl)-3′-fluoro-[1,1′-biphenyl]-2-carboxylic acid]",6.00 to 7.00
3,O=C(Nc1ccc(CN2C(=O)c3ccc(Cl)cc3NC(=O)[C@H]2Cc2ccccn2)cc1)c1ccccn1 [Example 26b],> 7.00
4,"Cc1cnc(NC(=O)[C@H]2CC[C@H](CN3C(=O)c4ccc(Cl)cc4NC(=O)[C@H]3Cc3ccccn3)CC2)cn1 [Example 4cf, (1R,4r)-4-(((R)-8-chloro-2,5-dioxo-3-(pyridin-2-ylmethyl)-2,3-dihydro-1H-benzo[e][1,4]diazepin-4(5H)-yl)methyl)-N-(5-methylpyrazin-2-yl)cyclohexanecarboxamide]",> 7.00
5,"Cc1cnc(NC(=O)c2ccc(CN3C(=O)c4ccc(Cl)cc4NC(=O)[C@H]3Cc3ccccn3)cc2Cl)nc1 [Example 5as, (R)-2-chloro-4-((8-chloro-2,5-dioxo-3-(pyridin-2-ylmethyl)-2,3-dihydro-1H-benzo[e][1,4]diazepin-4(5H)-yl)methyl)-N-(5-methylpyrimidin-2-yl)benzamide]",> 7.00
6,O=C(O)c1ccc(CN2C(=O)c3ccc(Cl)cc3NC(=O)[C@H]2Cc2ccccc2F)cc1 [Example 3j],4.46 to 5.00
7,"O=C1CN(Cc2ccc(C(=O)Nc3ccccn3)cc2)C(=O)c2ccc(Cl)cc2N1 [Example 4am, 4-((8-chloro-2,5-dioxo-2,3-dihydro-1H-benzo[e][1,4]diazepin-4(5H)-yl)methyl)-N-(pyridin-2-yl)benzamide]",6.00 to 7.00
8,Cc1ccnc(C(=O)Nc2ccc(CN3C(=O)c4ccc(Cl)cc4NC(=O)[C@H]3Cc3ccccn3)cc2)c1 [Example 26c],> 7.00
9,"O=C1Nc2cc(Cl)ccc2C(=O)N(Cc2ccc(C(=O)N3CCCc4cccnc43)cc2)[C@@H]1Cc1ccccn1 [Example 4ag, (R)-8-chloro-3-(pyridin-2-ylmethyl)-4-(4-(1,2,3,4-tetrahydro-1,8-naphthyridine-1-carbonyl)benzyl)-3,4-dihydro-1H-benzo[e][1,4]diazepine-2,5-dione]",5.00 to 6.00
10,"O=C(Nc1ccc(Cl)cn1)c1ccc(CN2C(=O)c3ccc(Cl)cc3NC(=O)[C@H]2Cc2cccnc2)cc1 [Example 5d, (R)-4-((8-chloro-2,5-dioxo-3-(pyridin-3-ylmethyl)-2,3-dihydro-1H-benzo[e][1,4]diazepin-4(5H)-yl)methyl)-N-(5-chloropyridin-2-yl)benzamide]",> 7.00
11,"Cc1ccc(-c2cc(CN3C(=O)c4ccc(Cl)cc4NC(=O)[C@H]3Cc3ccccn3)ccc2C(=O)O)cc1 [Example 8g, (R)-5-((8-chloro-2,5-dioxo-3-(pyridin-2-ylmethyl)-2,3-dihydro-1H-benzo[e][1,4]diazepin-4(5H)-yl)methyl)-4′-methyl-[1,1′-biphenyl]-2-carboxylic acid]",6.00 to 7.00
12,O=C(Nc1cc(CN2C(=O)c3ccc(Cl)cc3NC(=O)[C@H]2Cc2ccccn2)ccc1C(=O)O)c1cccnc1 [Example 22g],5.00 to 6.00
13,O=C1Nc2cc(Cl)ccc2C(=O)N(Cc2ccc3c(Nc4ccccn4)nccc3c2)[C@@H]1Cc1ccccn1 [Example 49e],> 7.00
14,"Cc1ccc(NC(=O)c2ccc(CN3C(=O)c4ccc(NS(C)(=O)=O)cc4NC(=O)[C@H]3C)cc2)nc1 [Example 39a, (R)-4-((3-Methyl-8-(methylsulfonamido)-2,5-dioxo-2,3-dihydro-1H-benzo[e][1,4]diazepin-4(5H)-yl)methyl)-N-(5-methylpyridin-2-yl)benzamide]",4.46 to 5.00
15,"O=C(Nc1ccc(C(F)(F)F)cn1)c1ccc(CN2C(=O)c3ccc(Cl)cc3NC(=O)[C@H]2Cc2ccccn2)cc1-c1ccc2c(c1)OCO2 [Example 5f, (R)-2-(benzo[d][1,3]dioxol-5-yl)-4-((8-chloro-2,5-dioxo-3-(pyridin-2-ylmethyl)-2,3-dihydro-1H-benzo[e][1,4]diazepin-4(5H)-yl)methyl)-N-(5-(trifluoromethyl)pyridin-2-yl)benzamide]",6.00 to 7.00
16,"O=C(NS(=O)(=O)c1ccc(Cl)cc1)c1ccc(CN2C(=O)c3ccc(Cl)cc3NC(=O)[C@H]2Cc2cccnc2)cc1 [Example 15c, (R)-4-((8-chloro-2,5-dioxo-3-(pyridin-3-ylmethyl)-2,3-dihydro-1H-benzo[e][1,4]diazepin-4(5H)-yl)methyl)-N-((4-chlorophenyl)sulfonyl)benzamide]",5.00 to 6.00
17,O=C(O)c1ccc(CN2C(=O)c3ccc(Cl)cc3NC(=O)[C@H]2Cc2cccc(Cl)c2)cc1 [Example 3f],5.00 to 6.00
18,"O=C(Nc1ccccn1)c1ccc(CN2C(=O)c3ccc(Cl)cc3NC(=O)[C@H]2Cc2ccccc2Cl)cc1 [Example 4w, (R)-4-((8-chloro-3-(2-chlorobenzyl)-2,5-dioxo-2,3-dihydro-1H-benzo[e][1,4]diazepin-4(5H)-yl)methyl)-N-(pyridin-2-yl)benzamide]",> 7.00
